Assay results: PMC9311539, “Antibacterial Activity against Clinical Isolates and In Vivo Efficacy of Coralmycins” (Antibiotics, 2022)
≈ marks a conversion by molar mass, not a printed value. Like-named read-outs stand apart in the source and are kept apart here.

What was measured:
S. pneumoniae ATCC49619 [1] = test: Time-kill assay, S. pneumoniae ATCC49619; type: cell-based, Streptococcus pneumoniae; details: 2× and 4× MIC, 24 h
Protocol: (§1) Time-kill analysis was performed by the NCCLS M26-A method. The test organisms (S. aureus Giorgio, S. pneumoniae ATCC49619, MRSA CCARM 3167, and VRE 3) incubated in CAMHB for 18 h at 35 °C were diluted to 10^5 CFU/mL with fresh CAMHB, and the diluted cultures were preincubated for 2 h. For S. pneumoniae culture, 5% sheep blood (Hanil Comed, Seongnam, Korea) was added. […] Culture aliquots (0.1 mL) were removed after 0, 2, 4, 6 and 24 h of incubation, and serial 10-fold dilutions were prepared in saline as needed. The numbers of viable cells were determined on drug-free MHA plates after 20 h of incubation. A compound was considered bactericidal if the original inoculum was reduced by 3 log CFU/mL (99.9%) at each concentration or was considered bacteriostatic if the inoculum was reduced by 0–3 log CFU/mL.

MRSA CCARM 3167 [2] = test: Time-kill assay, MRSA CCARM 3167; type: cell-based, Staphylococcus aureus; details: 2× and 4× MIC, 24 h
Protocol: as §1

VRE 3 [3] = test: Time-kill assay, VRE 3; type: cell-based, vancomycin-resistant Enterococcus; details: 2× and 4× MIC, 24 h
Protocol: as §1

VRE 3 [4] = test: MIC against VRE 3; type: cell-based, vancomycin-resistant Enterococcus; details: Enterococcus, read-out: MIC
Protocol: (§2) The MICs of the antimicrobial agents were determined by a twofold microdilution broth method, as described by the Clinical and Laboratory Standards Institute. Briefly, test organisms were grown on Mueller–Hinton agar (MHA, BD Difco, Sparks, MD, USA) plates, subcultured into cation-adjusted Mueller–Hinton broth (CAMHB, BD Difco, Sparks, MD, USA), and incubated for 18 h at 35 °C. For S. pneumoniae culture, 5% sheep blood (Hanil Comed, Seongnam, Korea) was added. The cultured bacteria were diluted using phosphate-buffered saline (PBS) to achieve a bacterial cell density of approximately 5 × 10^6 CFU/mL. All test organisms were loaded into 96-well plates containing serial dilutions of the antimicrobial agents to achieve a concentration of 5 × 10^4 CFU/well. The plates were incubated at 35 °C for 18–20 h and examined for bacterial growth.

VRE = test: MIC, broth microdilution, clinical isolates: VRE; type: cell-based, vancomycin-resistant Enterococcus
Protocol: (§3) To assess the MICs for antibiotic susceptibility, Gram-positive bacteria isolated from human clinical specimens were obtained from several general hospitals in Seoul, Korea, during 2002–2018. Staphylococcus aureus Giorgio and Streptococcus pneumoniae ATCC49619 were used to test in vivo efficacies against […], in mice.
as §2

S. aureus Giorgio [5] = test: MIC against S. aureus Giorgio; type: cell-based, Staphylococcus aureus; details: Staphylococcus aureus; read-out: MIC
Protocol: as §2

MRSA = test: MIC, broth microdilution, clinical isolates: MRSA; type: cell-based, Staphylococcus aureus; details: Staphylococcus aureus, MRSA, 42 clinical isolates
Protocol: as §3, §2

[6] = test system: CNS (coagulase-negative staphylococci); test: MIC, broth microdilution, clinical isolates: CNS; type: cell-based; details: 31 clinical isolates
Protocol: as §3, §2

[7] = cited from earlier work
[8] = test system: Vancomycin-sensitive E. faecalis; test: MIC, broth microdilution, clinical isolates: vancomycin-sensitive E. faecalis; type: cell-based, Enterococcus faecalis; details: Enterococcus faecalis, 32 clinical isolates
Protocol: as §3, §2

S. pneumoniae ATCC49619 [9] = test: MIC against S. pneumoniae ATCC49619; type: cell-based; details: Streptococcus pneumoniae, ATCC49619; read-out: MIC
Protocol: as §2

S. pneumoniae = test: MIC, broth microdilution, clinical isolates: S. pneumoniae; type: cell-based, Streptococcus pneumoniae
Protocol: as §3, §2

[10] = test system: Vancomycin-sensitive E. faecium; test: MIC, broth microdilution, clinical isolates: vancomycin-sensitive E. faecium; type: cell-based, Enterococcus faecium; details: Enterococcus faecium, 32 clinical isolates
Protocol: as §3, §2

S. aureus Giorgio [11] = test: Time-kill assay, S. aureus Giorgio; type: cell-based, Staphylococcus aureus; details: 2× and 4× MIC, 24 h
Protocol: as §1

MSSA = test: MIC, broth microdilution, clinical isolates: MSSA; type: cell-based; details: Staphylococcus aureus, 26 clinical isolates
Protocol: as §3, §2

MRSA CCARM 3167 [12] = test: MIC against MRSA CCARM 3167; type: cell-based; details: Staphylococcus aureus; read-out: MIC
Protocol: as §2

S. pneumoniae ATCC49619 [13] = test: Neutropenic mouse respiratory tract infection model; type: in vivo, female ICR mice
Protocol: For the respiratory tract infection model, neutropenic mice were anesthetized and intranasally inoculated with a 50 μL suspension of S. pneumoniae ATCC49619 (4.4 × 10^8 CFU/mL). For the thigh infection model, the neutropenic mice were administered an intramuscular injection of a 100 μL suspension of S. aureus Giorgio (1 × 10^6 CFU/mL) into both thighs. For both models, four mice were included in each group. At 2 h after infection, two mice were sacrificed, and the infected thighs or lungs (n = 4) were excised to determine the initial bacterial levels. […] At 24 h after infection, the mice were sacrificed by cervical dislocation; their thighs or lungs were removed, homogenized, serially diluted with saline, and plated onto MHA to count the number of bacteria remaining. The number of viable bacterial cells (CFU) in the thighs or lungs of vehicle- and drug-treated mice was determined.

MIC (VRE 3 [4]): 2 µg/mL (≈ 5.93 µM) | MIC90 (VRE; 46 clinical isolates): 4 µg/mL (≈ 11.9 µM) | MIC50 (VRE; Enterococcus, VRE, 46 clinical isolates, read-out: MIC50): 2 µg/mL (≈ 5.93 µM) | MIC90 (VRE; Enterococcus, 46 VRE isolates, read-out: MIC90): 4 µg/mL (≈ 11.9 µM) | MIC (S. aureus Giorgio [5]): 2 µg/mL (≈ 5.93 µM) | MIC50 (MRSA; read-out: MIC50): 2 µg/mL (≈ 5.93 µM) | MIC90 (MRSA; read-out: MIC90): 4 µg/mL (≈ 11.9 µM) | MIC50 ([6]; read-out: MIC50): 2 µg/mL (≈ 5.93 µM) | MIC90 ([6]; read-out: MIC90): 4 µg/mL (≈ 11.9 µM) | MIC50 ([8]; read-out: MIC50): 2 µg/mL (≈ 5.93 µM) | MIC90 ([8]; read-out: MIC90): 4 µg/mL (≈ 11.9 µM) | MIC (S. pneumoniae ATCC49619 [9]): 2 µg/mL (≈ 5.93 µM) | MIC90 (S. pneumoniae; 27 clinical isolates): 4 µg/mL (≈ 11.9 µM) | MIC90 (S. pneumoniae; Streptococcus pneumoniae, 27 S. pneumoniae isolates, read-out: MIC90): 4 µg/mL (≈ 11.9 µM) | MIC50 (S. pneumoniae; Streptococcus pneumoniae, 27 clinical isolates, read-out: MIC50): 2 µg/mL (≈ 5.93 µM) | MIC50 ([10]; read-out: MIC50): 2 µg/mL (≈ 5.93 µM) | MIC90 ([10]; read-out: MIC90): 4 µg/mL (≈ 11.9 µM) | MIC50 (MSSA; read-out: MIC50): 2 µg/mL (≈ 5.93 µM) | MIC90 (MSSA; read-out: MIC90): 2 µg/mL (≈ 5.93 µM) | MIC (MRSA CCARM 3167 [12]): 1 µg/mL (≈ 2.96 µM)
Structure (SMILES): CC(=O)NC[C@H]1CN(c2ccc(N3CCOCC3)c(F)c2)C(=O)O1 [Linezolid]
time-kill activity (S. pneumoniae ATCC49619 [1]): bacteriostatic (considered bacteriostatic if the inoculum was reduced by 0–3 log CFU/mL) | time-kill activity (MRSA CCARM 3167 [2]): bacteriostatic (considered bacteriostatic if the inoculum was reduced by 0–3 log CFU/mL) | time-kill activity (VRE 3 [3]): bacteriostatic (considered bacteriostatic if the inoculum was reduced by 0–3 log CFU/mL) | bound to plasma proteins [7]: 18% | time-kill activity (S. aureus Giorgio [11]): bacteriostatic (considered bacteriostatic if the inoculum was reduced by 0–3 log CFU/mL) | in vivo effect (bacteriostatic or bactericidal) (S. pneumoniae ATCC49619 [13]; 4 mg/kg bid s.c.): bacteriostatic | in vivo effect (bacteriostatic or bactericidal) (S. pneumoniae ATCC49619 [13]; 20 mg/kg bid s.c.): bactericidal | reduction of the starting bacterial burden compared to the 2-h control group (S. pneumoniae ATCC49619 [13]; second trial, 20 mg/kg bid): 0.75 log10 CFU/lung
